Laboratory results: paper PMC9029089, “1,5-Disubstituted Acylated 2-Amino-4,5-dihydroimidazoles as a New Class of Retinoic Acid Receptor–Related Orphan Receptor (ROR) Inhibitors” (International Journal of Molecular Sciences, 2022)

Target: T1, RORγ (Mus musculus, UniProt P51450)
T1 construct: mRORγ (Pro-261-end); expressed in transfected cells
T1 sequence (P51450 261-516 limits assumed): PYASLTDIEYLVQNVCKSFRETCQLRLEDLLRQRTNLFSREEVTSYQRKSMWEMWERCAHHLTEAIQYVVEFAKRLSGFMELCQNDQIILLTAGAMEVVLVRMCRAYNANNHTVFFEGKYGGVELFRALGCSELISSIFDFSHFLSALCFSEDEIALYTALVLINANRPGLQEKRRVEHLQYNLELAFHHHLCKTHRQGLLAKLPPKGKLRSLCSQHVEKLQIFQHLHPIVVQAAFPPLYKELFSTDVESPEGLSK
Test: Gal4-RORγ-LBD UAS-luciferase reporter assay in TRex-CHO-K1 cells (doxycycline-stimulated)
Type: cell-based
Settings: individual controls 1295.201-307, 5 μg/ml, triplicate
Text: The Gal4-DBD-ROR-LBD fusion proteins were subcloned in the pcDNA4/TO expression vector (Thermo Scientific) and transfected into TRex-CHO-K1 cells (Thermo Scientific) for tetracycline-controlled expression of the corresponding ROR proteins. Transfected cells were selected with hygromycin and Zeocin and individual clones for each of the Gal4-RORγ, Gal4-RORα, and Gal4-RORβ cell lines were isolated using a standard serial dilution protocol. Clones with the highest doxycycline-dependent stimulation of luciferase activity were selected for all functional experiments.
For screening FIU libraries, cells were resuspended in Ham’s F-12 assay medium containing 2% charcoal-treated FBS and no selection drugs. […] Cells were allowed to attach for 2 h, followed by compound treatment and stimulation with 20 ng/mL doxycycline for an additional 16–20 h. Appropriate solvent controls, negative controls with no doxycycline, and blanks with no cells were included in every plate. Prior to measuring luciferase activity, 6 µL of 0.15 mg/mL resazurin (Cayman Chemical) in PBS were added and cells were incubated for 1 h at 37 °C. Fluorescence intensity was detected at 545 nm excitation/590 nm emission using a CLARIOstar reader (BMGLabtech) as a measure of cell viability, to identify any potential cytotoxic effect of test compounds and mixtures.
Luminescence was normalized by the fluorescence intensity and the percentage of inhibition was calculated with respect to control cells stimulated with doxycycline in the presence of solvent control (0.1% DMF). All primary screens with individual compounds were performed in triplicate with a final concentration of 5 µg/mL. […] IC50 values were calculated using GraphPrism (GraphPad software).

Row | SMILES | % Inhibition RORγ 5 μg/ml [%]
1 | CCC(CN1C(NC(=O)Cc2ccccc2)=NCC1Cc1ccccc1)c1ccccc1 (mixture of isomers) [1295.235] | 35.8
2 | CC(CCN1C(NC(=O)Cc2ccccc2)=NCC1Cc1ccccc1)c1ccccc1 (mixture of isomers) [1295.236] | 26.8
3 | CC(C)Cc1ccc(C(C)CN2C(NC(=O)Cc3ccccc3)=NCC2Cc2ccccc2)cc1 (mixture of isomers) [1295.245] | 21.5
4 | CCC(C)CN1C(NC(=O)Cc2ccccc2)=NCC1Cc1ccccc1 (mixture of isomers) [1295.256] | -8.1
5 | CC(C)Cc1ccc(C(C)C(=O)NC2=NCC(Cc3ccccc3)N2CCc2ccccc2)cc1 (mixture of isomers) [1295.283] | 58.6
6 | CCC(C)C(=O)NC1=NCC(Cc2ccccc2)N1CCc1ccccc1 (mixture of isomers) [1295.296] | 41.7
7 | C[C@H]1CN=C(NC(=O)Cc2ccccc2)N1CCc1ccccc1 [1295.201] | -40.7
8 | O=C(Cc1ccccc1)NC1=NC[C@H](Cc2ccccc2)N1CCc1ccccc1 [1295.202] | 0.0
9 | O=C(Cc1ccccc1)NC1=NCCN1CCc1ccccc1 [1295.203] | -29.5
10 | CC(C)C[C@H]1CN=C(NC(=O)Cc2ccccc2)N1CCc1ccccc1 [1295.205] | 54.1
11 | CC(C)[C@H]1CN=C(NC(=O)Cc2ccccc2)N1CCc1ccccc1 [1295.206] | 32.7
12 | O=C(Cc1ccccc1)NC1=NC[C@H](Cc2ccc(O)cc2)N1CCc1ccccc1 [1295.207] | -85.0
13 | C[C@@H]1CN=C(NC(=O)Cc2ccccc2)N1CCc1ccccc1 [1295.208] | -9.3
14 | O=C(Cc1ccccc1)NC1=NC[C@@H](Cc2ccccc2)N1CCc1ccccc1 [1295.209] | 46.8
15 | CC(C)C[C@@H]1CN=C(NC(=O)Cc2ccccc2)N1CCc1ccccc1 [1295.211] | 38.8
16 | CC(C)[C@@H]1CN=C(NC(=O)Cc2ccccc2)N1CCc1ccccc1 [1295.212] | 33.3
17 | CC1(C)CN=C(NC(=O)Cc2ccccc2)N1CCc1ccccc1 [1295.214] | 1.6
18 | CCC[C@H]1CN=C(NC(=O)Cc2ccccc2)N1CCc1ccccc1 [1295.215] | 31.5
19 | CCC[C@@H]1CN=C(NC(=O)Cc2ccccc2)N1CCc1ccccc1 [1295.216] | 24.5
20 | CCCC[C@H]1CN=C(NC(=O)Cc2ccccc2)N1CCc1ccccc1 [1295.217] | 13.0
21 | CCCC[C@@H]1CN=C(NC(=O)Cc2ccccc2)N1CCc1ccccc1 [1295.218] | -11.7

Row | SMILES | % Inhibition RORγ 5 μg/ml [%]
22 | O=C(Cc1ccccc1)NC1=NC[C@H](c2ccccc2)N1CCc1ccccc1 [1295.219] | 0.1
23 | O=C(Cc1ccccc1)NC1=NC[C@@H](c2ccccc2)N1CCc1ccccc1 [1295.220] | -5.2
24 | O=C(Cc1ccccc1)NC1=NC[C@H](Cc2ccc3ccccc3c2)N1CCc1ccccc1 [1295.221] | 31.3
25 | O=C(Cc1ccccc1)NC1=NC[C@@H](Cc2ccc3ccccc3c2)N1CCc1ccccc1 [1295.222] | 22.4
26 | O=C(Cc1ccccc1)NC1=NC[C@H](CC2CCCCC2)N1CCc1ccccc1 [1295.223] | 3.4
27 | O=C(Cc1ccccc1)NC1=NC[C@@H](CC2CCCCC2)N1CCc1ccccc1 [1295.224] | 9.6
28 | O=C(Cc1ccccc1)NC1=NC[C@H](Cc2ccc(Cl)cc2)N1CCc1ccccc1 [1295.225] | -32.6
29 | O=C(Cc1ccccc1)NC1=NC[C@@H](Cc2ccc(Cl)cc2)N1CCc1ccccc1 [1295.226] | 6.9
30 | O=C(Cc1ccccc1)NC1=NC[C@H](Cc2ccc(F)cc2)N1CCc1ccccc1 [1295.227] | -8.2
31 | O=C(Cc1ccccc1)NC1=NC[C@@H](Cc2ccc(F)cc2)N1CCc1ccccc1 [1295.228] | 31.3
32 | O=C(Cc1ccccc1)NC1=NC[C@H](Cc2cccnc2)N1CCc1ccccc1 [1295.229] | -23.1
33 | O=C(Cc1ccccc1)NC1=NC[C@@H](Cc2cccnc2)N1CCc1ccccc1 [1295.230] | -16.0
34 | CC(C)(C)[C@H]1CN=C(NC(=O)Cc2ccccc2)N1CCc1ccccc1 [1295.231] | -31.5
35 | CC(C)(C)[C@@H]1CN=C(NC(=O)Cc2ccccc2)N1CCc1ccccc1 [1295.232] | 8.2
36 | CCOc1ccc(C[C@H]2CN=C(NC(=O)Cc3ccccc3)N2CCc2ccccc2)cc1 [1295.233] | 31.0
37 | CCOc1ccc(C[C@@H]2CN=C(NC(=O)Cc3ccccc3)N2CCc2ccccc2)cc1 [1295.234] | -7.7
38 | Cc1cccc(CCN2C(NC(=O)Cc3ccccc3)=NC[C@@H]2Cc2ccccc2)c1 [1295.237] | -4.8
39 | O=C(Cc1ccccc1)NC1=NC[C@H](Cc2ccccc2)N1CCc1cccc(F)c1 [1295.238] | 34.6
40 | O=C(Cc1ccccc1)NC1=NC[C@H](Cc2ccccc2)N1CCc1cccc(Br)c1 [1295.239] | 47.8
41 | O=C(Cc1ccccc1)NC1=NC[C@H](Cc2ccccc2)N1CCc1ccc(F)cc1 [1295.240] | 52.2
42 | COc1cccc(CCN2C(NC(=O)Cc3ccccc3)=NC[C@@H]2Cc2ccccc2)c1 [1295.241] | 7.4

Row | SMILES | % Inhibition RORγ 5 μg/ml [%]
43 | O=C(Cc1ccccc1)NC1=NC[C@H](Cc2ccccc2)N1CCc1ccc(Br)cc1 [1295.242] | 67.1
44 | COc1ccc(CCN2C(NC(=O)Cc3ccccc3)=NC[C@@H]2Cc2ccccc2)cc1 [1295.243] | 27.2
45 | CCOc1ccc(CCN2C(NC(=O)Cc3ccccc3)=NCC2Cc2ccccc2)cc1 (stereo not shown) [1295.244] | 5.9
46 | O=C(Cc1ccccc1)NC1=NC[C@H](Cc2ccccc2)N1CCc1cc(C(F)(F)F)cc(C(F)(F)F)c1 [1295.246] | 20.0
47 | COc1ccc(CCCN2C(NC(=O)Cc3ccccc3)=NC[C@H]2Cc2ccccc2)cc1OC [1295.247] | 32.5
48 | COc1ccc(CCN2C(NC(=O)Cc3ccccc3)=NC[C@@H]2Cc2ccccc2)cc1OC [1295.249] | 42.2
49 | O=C(Cc1ccccc1)NC1=NC[C@H](Cc2ccccc2)N1CCc1ccccc1 [1295.250] | 9.9
50 | O=C(Cc1ccccc1)NC1=NC[C@H](Cc2ccccc2)N1CCCc1ccccc1 [1295.251] | -112.4
51 | O=C(Cc1ccccc1)NC1=NC[C@H](Cc2ccccc2)N1CCCCc1ccccc1 [1295.252] | -2.3
52 | CCCCN1C(NC(=O)Cc2ccccc2)=NC[C@@H]1Cc1ccccc1 [1295.253] | -12.1
53 | CCCCCCCN1C(NC(=O)Cc2ccccc2)=NC[C@@H]1Cc1ccccc1 [1295.254] | 48.4
54 | CC(C)CN1C(NC(=O)Cc2ccccc2)=NC[C@@H]1Cc1ccccc1 [1295.255] | -9.8
55 | CC(C)CCN1C(NC(=O)Cc2ccccc2)=NC[C@@H]1Cc1ccccc1 [1295.257] | -28.5
56 | CC(C)(C)CN1C(NC(=O)Cc2ccccc2)=NC[C@@H]1Cc1ccccc1 [1295.259] | -25.1
57 | O=C(Cc1ccccc1)NC1=NC[C@H](Cc2ccccc2)N1CC1CCCCC1 [1295.260] | -10.7
58 | O=C(Cc1ccccc1)NC1=NC[C@H](Cc2ccccc2)N1CC1CCCCCC1 [1295.263] | -8.4
59 | CCN1C(NC(=O)Cc2ccccc2)=NC[C@@H]1Cc1ccccc1 [1295.264] | 7.5
60 | O=C(Cc1ccccc1)NC1=NC[C@H](Cc2ccccc2)N1CC1CCC1 [1295.265] | 53.1
61 | O=C(Cc1ccccc1)NC1=NC[C@H](Cc2ccccc2)N1CC1CCCC1 [1295.266] | 99.6
